Source: US20250171449A1, “TRYPTANTHRIN DERIVATIVES WITH THIOSEMICARBAZONE SUBSTITUTION AND USE THEREOF” (UNIVERZITA KARLOVA, priority 2022, published 2025)

Key:
RNA = assay: Interaction with RNA by UV/Vis titration; type: binding
[1] = Binding constant with Fe^2+ ions by UV/Vis titration
Procedure: (§1) The association of tryptanthrin derivatives with ferrous and ferric ions was studied by UV/Vis spectroscopy in aqueous solution (water/DMSO, 99:1, v/v). […] Association constants (K) were calculated from absorbance changes (AA) in the spectral maximum of the derivative and in the spectral maximum of its complexes with Fe^2+/3+ ions by regression analysis. The concentration of tryptanthrin derivatives was 100 μM. The concentration of Fe^2+ and Fe^3+ ions fluctuated in the range of 0-5 mM. UV/Vis spectra were measured with a Shimadzu spectrophotometer in the range 220-900 nm with a step of 1 nm in a 1 cm plastic cuvette at a scanning speed of 300 nm.min^-1. The effect of different concentrations of Fe ions on the absorbance of substance 1 (PAA-TSC) is shown in FIGS. 5 and 6; that for substance 5 […]-TSC) in FIGS. 7 and 8.

DNA from salmon sperm = assay: Interaction with DNA by UV/Vis titration; type: binding
SARS-COV-2 = assay: Antiviral effect: SARS-COV-2 RNA production in infected Vero cells (RT-qPCR of E-gene); type: cell-based; conditions: Vero in vitro model; 0-10 μM; 24 and 48 hours
Procedure: The cells in question (Vero cell line from African green monkey kidney; 1.5×10^5 cells per well) were infected with a SARS-COV-2 isolate provided by the Bioconservation Section of Techonin. The infectious inoculum contained 2.38×10^7 copies of the SARS-COV-2 E-gene. After 1 h inoculation, cells were supplemented with 1 ml of Dulbecco's modified Eagle's medium containing 2% fetal bovine serum (2% FBS-DMEM) and increasing concentrations (0-10 μM) of tryptanthrin derivatives 1 (PAA-TSC) and 5 (T8H-TSC), resp. After 24 and 48 hours of incubation, the growth of SARS-COV-2 was characterized in an aliquot of the culture supernatant by one-step RT-qPCR.
Viral RNA was isolated from 200 μl culture supernatant using magnetic beads. SARS-CoV-2 RNA was quantified by amplifying the E-gene of SARS-COV-2 (Generi Biotech) using the SensiFast Probe One-Step Kit (BioLine) and Light Cycler 480 II (Roche) using absolute quantification and calibration curve.

[2] = Binding constant with Fe^3+ ions by UV/Vis titration
Procedure: as §1

[3] = Interaction of tryptanthrin derivatives with transition metal ions (UV/Vis spectroscopy); type: binding; conditions: receptor 100 μM, ion 5000 μM
Procedure: First, the interaction of tryptanthrin derivatives 1 and 5 with metal ions was studied using UV/Vis spectroscopy. The receptor concentration was 100 μM and the ion concentration was 5000 μM.

[4] = stoichiometry (ion:ligand) 1:1, water/DMSO 99:1, derivative 100 μM
[5] = stoichiometry (NK:ligand) 1:2, phosphate buffer pH 7.00

SMILES | Log (K) association constant (RNA; stoichiometry (NK:ligand) 2:1, phosphate buffer pH 7.00) | Log (K) association constant [1, 4] | Log (K) association constant (DNA from salmon sperm; stoichiometry (NK:ligand) 1:1, phosphate buffer pH 7.00) | inhibition of virus particle / CoV-2 RNA production (SARS-COV-2) | Log (K) association constant [2, 4] | Log (K) association constant ([2]; stoichiometry (ion:ligand) 1:2, water/DMSO 99:1, derivative 100 μM) | absorbance changes after addition of metal ions (selectivity for Fe^2+/Fe^3+) [3] | Log (K) association constant (RNA; [5]) | Log (K) association constant ([1]; stoichiometry (ion:ligand) 2:1, water/DMSO 99:1, derivative 100 μM) | Log (K) association constant (DNA from salmon sperm; [5])
CC(CC1(O)c2ccccc2-n2c1nc1ccccc1c2=O)=NNC(N)=S (mixture of isomers) [derivative 1] | 8.7 | 1.5 | 7.4 | inhibition of virus particle production | 6.0 | 10.2 | significant absorbance changes were observed only in the case of ferrous and ferric ions | – | – | –
NC(=S)NN=C1c2ccccc2-n2c1nc1ccccc1c2=O [derivative 5] | – | 4.9 | – | inhibition of viral particle production | – | – | significant absorbance changes were observed only in the case of ferrous and ferric ions | 7.3 | 7.1 | 6.0
